System: 439559-082-T-J2-PDC spheroid viability
Experiment: Anticancer human tumor 439559-082-T-J2-PDC patient-derived colon adenocarcinoma cell line growth inhibition [POLQ]
Settings: spheroids with HUVEC and MSC; for IC50: curve of first compound; for viability, T/C: stronger effect = lower value
Method in brief: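 Patient-derived tumour cells were co-cultured with HUVEC and mesenchymal stem cells as multicellular spheroids at 37 °C. They were treated with POLQ inhibitors (novobiocin, ART-558, RP6685) alone or combined with other agents. Top concentrations were at or near clinical Cmax (otherwise 10 microM; SN-38 at 1 microM), decreasing in half-log steps.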
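Note: spheroids exposed to compounds for seven days before readout.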
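Throughout, for viability, T/C: 100% = DMSO vehicle control viability.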

SMILES: CC[C@@]1(O)C(=O)OCc2c1cc1n(c2=O)Cc2cc3c(CN(C)C)c(O)ccc3nc2-1 + COC1C(OC(N)=O)C(O)C(Oc2ccc3c(O)c(NC(=O)c4ccc(O)c(CC=C(C)C)c4)c(=O)oc3c2C)OC1(C)C
- IC50 (second compound 0.0316 µM): > 0.1 µM
- IC50 (second compound 0.1 µM): > 0.1 µM
- IC50 (second compound 0.316 µM): > 0.1 µM
- IC50 (second compound 1 µM): > 0.1 µM
- IC50 (second compound 3.16 µM): > 0.1 µM
- IC50 (second compound 10 µM): > 0.1 µM
- viability, T/C (second compound 0.0316 µM, first compound 0.000316 µM): 99%
- viability, T/C (second compound 0.0316 µM, first compound 0.001 µM): 100%
- viability, T/C (second compound 0.0316 µM, first compound 0.00316 µM): 92.3%
- viability, T/C (second compound 0.0316 µM, first compound 0.01 µM): 96.1%
- viability, T/C (second compound 0.0316 µM, first compound 0.0316 µM): 89.5%
- viability, T/C (second compound 0.0316 µM, first compound 0.1 µM): 74.2%
- viability, T/C (second compound 0.1 µM, first compound 0.000316 µM): 99%
- viability, T/C (second compound 0.1 µM, first compound 0.001 µM): 98.5%
- viability, T/C (second compound 0.1 µM, first compound 0.00316 µM): 101%
- viability, T/C (second compound 0.1 µM, first compound 0.01 µM): 101%
- viability, T/C (second compound 0.1 µM, first compound 0.0316 µM): 87.7%
- viability, T/C (second compound 0.1 µM, first compound 0.1 µM): 79.2%
- viability, T/C (second compound 0.316 µM, first compound 0.000316 µM): 97.3%
- viability, T/C (second compound 0.316 µM, first compound 0.001 µM): 99.5%
- viability, T/C (second compound 0.316 µM, first compound 0.00316 µM): 105%
- viability, T/C (second compound 0.316 µM, first compound 0.01 µM): 93.7%
- viability, T/C (second compound 0.316 µM, first compound 0.0316 µM): 92.3%
- viability, T/C (second compound 0.316 µM, first compound 0.1 µM): 79.1%
- viability, T/C (second compound 1 µM, first compound 0.000316 µM): 105%
- viability, T/C (second compound 1 µM, first compound 0.001 µM): 115%
- viability, T/C (second compound 1 µM, first compound 0.00316 µM): 104%
- viability, T/C (second compound 1 µM, first compound 0.01 µM): 97.5%
- viability, T/C (second compound 1 µM, first compound 0.0316 µM): 94.2%
- viability, T/C (second compound 1 µM, first compound 0.1 µM): 82.5%
- viability, T/C (second compound 3.16 µM, first compound 0.000316 µM): 100%
- viability, T/C (second compound 3.16 µM, first compound 0.001 µM): 99.8%
- viability, T/C (second compound 3.16 µM, first compound 0.00316 µM): 105%
- viability, T/C (second compound 3.16 µM, first compound 0.01 µM): 92.6%
- viability, T/C (second compound 3.16 µM, first compound 0.0316 µM): 94.4%
- viability, T/C (second compound 3.16 µM, first compound 0.1 µM): 74.7%
- viability, T/C (second compound 10 µM, first compound 0.000316 µM): 105%
- viability, T/C (second compound 10 µM, first compound 0.001 µM): 101%
- viability, T/C (second compound 10 µM, first compound 0.00316 µM): 94.5%
- viability, T/C (second compound 10 µM, first compound 0.01 µM): 100%
- viability, T/C (second compound 10 µM, first compound 0.0316 µM): 91.3%
- viability, T/C (second compound 10 µM, first compound 0.1 µM): 77.6%

Source: PubChem BioAssay AID1963841 (Molecular Pharmacology Branch, DTP, NCI, 2024)
